Data: patent US20160073633A1, “CROP ENHANCEMENT” (SYNGENTA PARTICIPATIONS AG, priority 2013, published 2016)
Entries after “also recorded” stand apart in the source; their conditions may differ.

Experiments:
potato tubers [1] = experiment: Experiment 1.1: azoxystrobin sprayed on uncovered potato tubers, no cold stress, plant growth vs check; assay type: in vivo
Description: A commercially available SC100 formulation of azoxystrobin was sprayed directly to uncovered potato tubers, which were sitting on soil (50% drench soil mixed with 50% sand), at two different rates: • 7.5 g/ha • 3.8 g/ha
(§1) The spray volume was 200 l/ha.
(§2) The check had no treatment of azoxystrobin.
(§3) The trials were repeated in 6 troughs with 3 tubers each.
Varieties tested were Allians, Belana, Marabel and Roberta. Each were tested as pre-germinated (i.e. treatment was applied when the potato tuber had 2-3 mm long sprouts) tubers and as non germinated tubers.
The temperature was about 17° C. during the day and about 15° C. during the night.
(§4) No pest pressure present.
Plant vitality was measured with the “Green Seeker” system.

potato tubers [2] = experiment: Experiment 1.2: azoxystrobin sprayed on uncovered pre-germinated potato tubers at about 10° C. (simulated cold stress), plant growth vs check; assay type: in vivo; conditions: 3 g/ha; for % increased growth vs Check (visual plant growth): pre-germinated, 21 days after application
Description: A commercially available SC100 formulation of azoxystrobin was sprayed directly to uncovered potato tubers, which were sitting on soil (50% drench soil mixed with 50% sand), at: • 3 g/ha
as §1, §2, §3
Varieties tested were Allians, Belana, Marabel and Roberta. Each were tested as pre-germinated (i.e. treatment was applied when the potato tuber had 2-3 mm long sprouts) tubers.
The temperature was held at about 10° C. during the day and night to simulate cold stress.
as §4
Visual Plant Growth was Measured 21 Days after Application: […]

[3] = 21 and 34 days after application

SMILES: CO/C=C(/C(=O)OC)c1ccccc1Oc1cc(Oc2ccccc2C#N)ncn1 [azoxystrobin]
- Shoot number in comparison with the check (potato tubers [1]; 7.5 g/ha and 3.8 g/ha, spray 200 l/ha, about 17° C. day/15° C. night, Allians, Belana, Marabel, Roberta, pre-germinated and non germinated tubers): increased number of shoots
- Shoot fresh mass in comparison with the check (potato tubers [1]; 7.5 g/ha and 3.8 g/ha, spray 200 l/ha, about 17° C. day/15° C. night, all varieties): increased shoot fresh mass; also recorded: significantly increased
- Plant vitality (Green Seeker) vs check (potato tubers [1]; Allians and Roberta, pre-germinated tubers, about 17° C. day/15° C. night): better than check
- Plant vitality (Green Seeker) in comparison with the check, FIG. 3 (potato tubers [1]; each trial, 7.5 g/ha and 3.8 g/ha): increased plant vitality
- Plant vitality (Green Seeker) vs check (potato tubers [1]; low rate treatment (3.8 g/ha), about 17° C. day/15° C. night): often showed a lower value
- Number of shoots in comparison with the check (potato tubers [2]; [3]): increased number of shoots
- Shoot length in comparison with the check (potato tubers [2]; [3]): increased shoot length
- Visually more shoot than check (potato tubers [2]; across varieties): up to 38%
- Growth of treated tubers vs untreated check (potato tubers [2]; all varieties): grew better than untreated check
- % increased growth vs Check (visual plant growth) (potato tubers [2]; variety Allians): 38%
- % increased growth vs Check (visual plant growth) (potato tubers [2]; variety Belana): 12%
- % increased growth vs Check (visual plant growth) (potato tubers [2]; variety Marabel): 37%
- % increased growth vs Check (visual plant growth) (potato tubers [2]; variety Roberta): 10%
